Structures are written as SMILES.

Consider 4 compounds from patent US20100311035A1, “Preservation solution for organs and biological tissues” (priority 2005, published 2010).

In one test the test system is Rat kidneys. The test can be described thus: Machine perfusion of rat kidneys for 24 hours, transplantation, post-transplant serum creatinine. Conditions: component(s) added to Belzer solution; kidneys preserved under machine perfusion for 24 hours, then transplanted; serum creatinine measured hourly for 6 hours; control BELZ solution; FIG. 2. Format: in vivo. As to the method:
Rat kidneys were recovered as above. Seven different solutions were prepared for comparison according to Table 2. […] The kidneys were preserved under machine perfusion for 24 hours with the respective solutions, and transplanted into recipient animals. Post-transplant serum creatinine (S. CREAT) was measured hourly for 6 hours.

For test [1], the system named is Sprague-Dawley rat kidneys. Description: Cold storage of rat kidneys for 24 hours, transplantation, post-transplant serum creatinine. Format: in vivo. Conditions: component(s) added to Viaspan; kidneys preserved under static conditions for 24 hours at 4° C, then transplanted; serum creatinine measured hourly for 6 hours; control VIASP solution; FIG. 1. As for the experimental part: Sprague-Dawley rat kidneys were recovered in the normal fashion and were exsanguinated and cooled to 4° C. Experimental components were added to the solution to test for improvements in post-transplant function (indicated by serum creatinine levels). Seven different solutions were prepared for comparison according to Table 1. […] The kidneys were preserved under static conditions for 24 hours with the respective solutions, and transplanted into recipient animals. Post-transplant serum creatinine (S. CREAT) was measured hourly for 6 hours.

In the case of `N=C(N)NCCC[C@H](N)C(=O)O` [L-arginine], the “improvement in post-transplant function (serum creatinine) compared to the control” value in the test on Rat kidneys was “Minimal, but statistically insignificant improvements”. Also, in test [1], the “improvement in post-transplant function (indicated by serum creatinine levels) compared to the control” value is recorded as “Minimal, but statistically insignificant improvements”.

As to `CC(=O)N[C@@H](CS)C(=O)O` [N-acetylcystein], the “improvement in post-transplant function (serum creatinine) compared to the control” value in the test with Rat kidneys was “Minimal, but statistically insignificant improvements”. The “improvement in post-transplant function (indicated by serum creatinine levels) compared to the control” value in test [1] is “Minimal, but statistically insignificant improvements”.

For `O=[N+]([O-])OCC(CO[N+](=O)[O-])O[N+](=O)[O-]` [nitroglycerin], the “improvement in post-transplant function (serum creatinine) compared to the control” value in the test on Rat kidneys is recorded as “Minimal, but statistically insignificant improvements”. Also, in test [1], the “improvement in post-transplant function (indicated by serum creatinine levels) compared to the control” value is “Minimal, but statistically insignificant improvements”.

For the compound `CCCCC[C@H](O)/C=C/[C@H]1[C@H](O)CC(=O)[C@@H]1CCCCCCC(=O)O` [prostaglandin E1], the “improvement in post-transplant function (serum creatinine) compared to the control” value in the test on Rat kidneys is recorded as “Minimal, but statistically insignificant improvements”. Besides, the “improvement in post-transplant function (indicated by serum creatinine levels) compared to the control” value in test [1] is recorded as “Minimal, but statistically insignificant improvements”.
